Results: patent US10888608B2, “Costimulation of chimeric antigen receptors by MyD88 and CD40 polypeptides” (BELLICUM PHARMACEUTICALS, INC., priority 2014, dated 2021)
Changes are numbered by the printed parent chain. Numbers in names are those of the source. Read-outs that look alike come from different tables or passages of the source.

B1: N405Q-S144Aco: Caspase-9 double mutant, class predicted (protein, UniProt P55211 1-416, looked up, variant N405Q S144A)
chain: MDEADRRLLRRCRLRLVEELQVDQLWDALLSRELFRPHMIEDIQRAGSGSRRDQARQLIIDLETRGSQALPLFISCLEDTGQDMLASFLRTNRQAAKLSKPTLENLTPVVLRPEIRKPEVLRPETPRPVDIGSGGFGDVGALEALRGNADLAYILSMEPCGHCLIINNVNFCRESGLRTRTGSNIDCEKLRRRFSSLHFMVEVKGDLTAKKMVLALLELAQQDHGALDCCVVVILSHGCQASHLQFPGAVYGTDGCPVSVEKIVNIFNGTSCPSLGGKPKLFFIQACGGEQKDHGFEVASTSPEDESPGSNPEPDATPFQEGLRTFDQLDAISSLPTPSDIFVSYSTFPGFVSWRDPKSGSWYVETLDDIFEQWAHSEDLQSLLLRVANAVSVKGIYKQMPGCFQFLRKKLFFKTS
modifications: codon optimized
notes: Caspase-9 double mutant, class predicted
B2: N405Q-T317Sco: Caspase-9 double mutant, class predicted (protein, UniProt P55211 1-416, looked up, variant N405Q T317S)
chain: B1 chain with A144S, T317S
modifications: codon-optimized
notes: as for B1

Experiments:
[1] = test system: iC9-CD19.ζ-MC CAR-modified T cells; assay: Raji tumor NSG mouse model with iC9-CD19.ζ-MC CAR T cells and rimiducid (Example 19); assay type: in vivo, mice
Protocol: FIG. 40A-FIG. 40C provide results of the enhancement of CD19 CAR-T cell efficacy in vivo by the MyD88/CD40 chimeric costimulatory molecule using the constructs of FIG. 37A-FIG. 37E. FIG. 40A: NSG mice (n=5 per group) were engrafted with Raji-luciferase tumor cells and then treated with non-transduced (NT) or iC9-CD19.ζ-MC CAR-modified T cells on day 3. Tumor growth was measured by IVIS imaging and calculated by whole-body BLI, as shown in photos. FIG. 40B provides a graph of bioluminescent counts (BLI counts) and FIG. 40C provides a graph of (Kaplan-Meier analysis from (A)).
FIG. 41A-FIG. 41C provide results of assays of the titration of inducible chimeric Caspase-9 expressing cells, using the constructs of FIG. 37A-FIG. 37E, with rimiducid. FIG. 41A and FIG. 41B: NSG mice (n=5 per group) were engrafted with CD19^+ Raji lymphoma cells and treated with 5×10^6 iC9-CD19.ζ-MC/luciferase-transduced T cells at day 3. After 6 days, mice were treated i.p. with log dilutions of rimiducid (0.00005-5 mg/kg). BLI of CAR-T cells was assessed prior to rimiducid treatment and at 24 and 48 hours post-injection. […] FIG. 41C provides graphs of serum cytokine levels, which were measured from each group before (black line) and 24 hours post-administration (gray line) of rimiducid. *P-value=<0.01.
5×10^5 Raji tumor cells were injected i.v. into NSG mice. On day 3, CD19 CAR-modified T cells were injected i.v. and bioluminescence (BLI) was measured for either tumor or T cells on a weekly basis by IVIS imaging. […]
FIG. 40 provides the results of mouse in vivo efficacy assays using the various CD19-specific CAR constructs. […] Tumor growth was measured by IVIS imaging and calculated by whole-body BLI (B). […]
FIG. 41 provides the results of mouse in vivo assays including CD19-specific CAR constructs and the Caspase-9 safety switch. […] BLI of CAR-T cells was assessed prior to rimiducid treatment and at 24 and 48 hours post-injection. C) Serum cytokine levels were measured from each group before (black line) and 24 hours post-administration (orange line) of rimiducid. *P-value=<0.01.

[2] = test system: CD3^+ ΔCD19^+ cells; assay: Phase I clinical trial: iCasp9^+ allodepleted T cells after haplo-CD34^+ stem cell transplantation, AP1903 given for GvHD; assay type: in vivo, human
From the text: This example presents results of a phase 1 clinical trial using an alternative suicide gene strategy. Briefly, donor peripheral blood mononuclear cells were co-cultured with recipient irradiated EBV-transformed lymphoblastoid cells (40:1) for 72 hrs., allodepleted with a CD25 immunotoxin and then transduced with a retroviral supernatant carrying the iCasp9 suicide gene and a selection marker (ΔCD19); ΔCD19 allowed enrichment to >90% purity via immunomagnetic selection.
Patients developing grade 1 GvHD were treated with 0.4 mglkg AP1903 as a 2-hour infusion. Protocols for administration of AP1903 to patients grade 1 GvHD were established as follows. Patients developing GvHD after infusion of allodepleted T cells are biopsied to confirm the diagnosis and receive 0.4 mg/kg of AP1903 as a 2 h infusion. […] Patients developing grades 2-4 GvHD were administered standard systemic immunosuppressive therapy per institutional guidelines, in addition to the AP1903 dimerizer drug.
Three patients received iCasp9^+ T cells after haplo-CD34^+ stem cell transplantation (SCT), at dose levels between about 1×10^6 to about 3×10^6 cells/kg.

[3] = cited from earlier work
[4] = test system: cells; assay: AP1903 amount needed in vitro for effective signaling of cells; assay type: cell-based
Protocol: The fixed dose of AP1903 for injection used, for example, may be 0.4 mg/kg intravenously infused over 2 hours. The amount of AP1903 needed in vitro for effective signaling of cells is about 10-100 nM (MW: 1412 Da). This equates to 14-140 μg/L or ˜0.014-0.14 mg/kg ([…]). The dosage may vary according to the application, and may, in certain examples, be more in the range of 0.1-10 nM, or in the range of 50-150 nM, 10-200 nM, 75-125 nM, 100-500 nM, 100-600 nM, 100-700 nM, 100-800 nM, or 100-900 nM. Doses up to 1 mg/kg were well-tolerated in the Phase I study of AP1903 provided above.

[5] = test system: Caspase-9; assay: Caspase mutant classes: basal activity and ligand IC50; design: species or system human; details: mutants marked *, predicted
From the text: Modified Caspase-9 Polypeptides with Lower Basal Activity and Minimal Loss of Ligand IC50
Even though homo-dimerization of wild-type initiator Caspase-9 is energetically unfavorable, making them mostly monomers in solution [14-16], the low-level inherent basal activity of unprocessed Caspase-9 [15, 17] is enhanced in the presence of the Apaf-1-based “apoptosome”, its natural allosteric regulator [6]. Moreover, supra-physiological expression levels and/or co-localization could lead to proximity-driven dimerization, further enhancing basal activation. The modified cells of the present application may comprise nucleic acids coding for a chimeric Caspase-9 polypeptide having lower basal signaling activity. Polynucleotides comprising Caspase-9 mutants with lower basal signaling may be expressed in the modified cells used for cell therapy herein. […] In some examples, the amount of dimerizer administered may be determined as an amount designed to remove the highest amount, at least 80% or 90% of the modified cells. In other examples, the amount of dimerizer administered may be determined as an amount designed to remove only a portion of the modified cells, in order to alleviate negative symptoms or conditions, while leaving a sufficient amount of therapeutic modified cells in the patient, in order to continue therapy. […]

[6] = rimiducid administered at objective evidence of sCRS

| Basal Activity [5] | Molecule | CAR T cell elimination on titration ([1]; iCaspase-9 safety switch, titrated rimiducid) | resolution of clinical sCRS [1, 6] | time to normalization of cytokines [1, 6] [h] | time to resolution of skin and liver aGvHD ([2]; after AP1903 administration) [h] | ablation of CD3^+ ΔCD19^+ cells ([2]; within 30 minutes of infusion, patients with grade I/II aGvHD) [%] | further reduction of CD3^+ ΔCD19^+ cells ([2]; within 24 hours) | plasma levels versus dose ([3]; 0.01-1.0 mg/kg) | plasma levels, % of maximal concentration ([3]; 2 hours post-dose) [%] | plasma levels, % of maximal concentration ([3]; 10 hours post-dose) [%] | serious adverse events ([3]; Phase 1 study in volunteers) | severity of adverse events ([3]; Phase 1 study in volunteers) | doses well-tolerated ([3]; Phase I study) | mean Cmax / plasma concentrations ([3]; single doses 0.01-1.0 mg/kg infused IV over 2 hours) [ng/mL] | adverse events possibly related to AP1903 ([3]; vasodilatation (facial flushing), 1 volunteer at 1.0 mg/kg) | amount needed in vitro for effective signaling of cells [4] [nM] |
| --- | --- | --- | --- | --- | --- | --- | --- | --- | --- | --- | --- | --- | --- | --- | --- | --- |
| – | CC[C@H](C(=O)N1CCCC[C@H]1C(=O)O[C@H](CCc1ccc(OC)c(OC)c1)c1cccc(OCC(=O)NCCNC(=O)COc2cccc([C@@H](CCc3ccc(OC)c(OC)c3)OC(=O)[C@@H]3CCCCN3C(=O)[C@@H](CC)c3cc(OC)c(OC)c(OC)c3)c2)c1)c1cc(OC)c(OC)c(OC)c1 (relative stereo) [AP1903, 2-Piperidinecarboxylic acid, 1-[(2S)-1-oxo-2-(3,4,5-trimethoxyphenyl)butyl]-, 1,2-ethanediylbis [imino(2-oxo-2,1-ethanediyl)oxy-3,1-phenylene[(1R)-3-(3,4-dimethoxyphenyl)propylidene]] ester, [2S-[1(R*),2R*[S*[S*[1(R*),2R*]]]]]-(9Cl)] | partial T cell elimination that still preserved CAR-T cell function | complete resolution of clinical sCRS without compromising tumor control | ≤ 24 | ≤ 24 | > 90 | further log reduction | directly proportional to dose | ~7 | ~1 | No serious adverse events occurred | mild in severity | up to 1 mg/kg | 10 to 1275 | Only one adverse event was considered possibly related to AP1903 | 10 to 100 |
| Decreased | B1 | – | – | – | – | – | – | – | – | – | – | – | – | – | – | – |
| Decreased | B2 | – | – | – | – | – | – | – | – | – | – | – | – | – | – | – |
